Values joined by “and” are separate entries in the source; they are usually repeats but may differ in a detail not shown here. Equal entries are not always repeated. Where two headings read alike, the source gives them in different places.
How the values were obtained:
gpH1R (ileum) = gpH1R (ileum) (Cavia porcellus, UniProt P31389); test: Organ bath study on isolated guinea pig ileum
gpH2R (atrium) [1] = biological target: T1, gpH2R (atrium) (Cavia porcellus, UniProt P47747); conditions: guinea-pig right atrium, cited from earlier work
gpH2R (atrium) [2] = biological target: T1, gpH2R (atrium); test: Organ bath study on isolated guinea pig right atrium; conditions: for Emax gpH2R: maximal response relative to maximal increase in heart rate induced by histamine (Emax=1.00)
hH3R = hH3R (Homo sapiens, UniProt Q9Y5N1); test: [35S]GTPγS binding assay, Sf9 membranes; format: biochemical
hH2R = hH2R (Homo sapiens, UniProt P25021+P63092); test: [35S]GTPγS binding assay, Sf9 membranes; format: biochemical
hH4R = hH4R (Homo sapiens, UniProt Q9H3N8); test: [35S]GTPγS binding assay, Sf9 membranes; format: biochemical
[3] = [35S]GTPγS binding, maximal response relative to histamine (Emax=1.00)

Chain of gpH1R (ileum) (P31389 whole entry): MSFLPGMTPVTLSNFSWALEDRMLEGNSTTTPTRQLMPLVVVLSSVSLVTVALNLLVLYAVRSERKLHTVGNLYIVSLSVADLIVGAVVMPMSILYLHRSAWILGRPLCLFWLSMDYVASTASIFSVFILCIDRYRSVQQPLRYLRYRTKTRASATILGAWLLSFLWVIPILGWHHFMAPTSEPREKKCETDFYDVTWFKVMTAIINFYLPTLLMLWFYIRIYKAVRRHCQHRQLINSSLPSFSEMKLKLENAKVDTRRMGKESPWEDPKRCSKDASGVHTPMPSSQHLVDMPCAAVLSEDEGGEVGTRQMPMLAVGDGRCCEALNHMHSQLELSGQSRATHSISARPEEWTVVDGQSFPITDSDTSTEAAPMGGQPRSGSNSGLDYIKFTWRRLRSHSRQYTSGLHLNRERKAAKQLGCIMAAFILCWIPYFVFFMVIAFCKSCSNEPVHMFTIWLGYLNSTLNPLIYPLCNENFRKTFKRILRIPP
Chain of hH4R (Q9H3N8 whole entry): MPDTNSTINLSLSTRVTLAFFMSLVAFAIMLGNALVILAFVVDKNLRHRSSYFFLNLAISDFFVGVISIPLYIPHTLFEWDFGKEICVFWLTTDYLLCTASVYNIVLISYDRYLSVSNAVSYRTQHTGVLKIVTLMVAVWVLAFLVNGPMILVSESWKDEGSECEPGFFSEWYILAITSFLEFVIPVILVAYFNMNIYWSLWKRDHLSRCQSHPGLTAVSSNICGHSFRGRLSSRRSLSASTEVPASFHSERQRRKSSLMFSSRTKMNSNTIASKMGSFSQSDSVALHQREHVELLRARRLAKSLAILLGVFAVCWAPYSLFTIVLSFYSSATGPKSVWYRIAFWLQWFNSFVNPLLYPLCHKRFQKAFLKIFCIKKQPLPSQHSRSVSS
T1 sequence (P47747 whole entry): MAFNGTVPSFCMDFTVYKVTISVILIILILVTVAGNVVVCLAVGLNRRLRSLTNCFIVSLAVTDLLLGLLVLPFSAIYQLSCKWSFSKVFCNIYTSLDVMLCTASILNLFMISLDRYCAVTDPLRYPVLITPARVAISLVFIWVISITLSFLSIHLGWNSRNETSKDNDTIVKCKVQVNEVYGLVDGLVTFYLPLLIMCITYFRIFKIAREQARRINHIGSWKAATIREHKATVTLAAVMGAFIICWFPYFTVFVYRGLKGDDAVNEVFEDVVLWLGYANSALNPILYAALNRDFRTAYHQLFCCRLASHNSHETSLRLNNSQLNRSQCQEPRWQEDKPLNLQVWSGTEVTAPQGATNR
Chain of hH3R (Q9Y5N1 whole entry): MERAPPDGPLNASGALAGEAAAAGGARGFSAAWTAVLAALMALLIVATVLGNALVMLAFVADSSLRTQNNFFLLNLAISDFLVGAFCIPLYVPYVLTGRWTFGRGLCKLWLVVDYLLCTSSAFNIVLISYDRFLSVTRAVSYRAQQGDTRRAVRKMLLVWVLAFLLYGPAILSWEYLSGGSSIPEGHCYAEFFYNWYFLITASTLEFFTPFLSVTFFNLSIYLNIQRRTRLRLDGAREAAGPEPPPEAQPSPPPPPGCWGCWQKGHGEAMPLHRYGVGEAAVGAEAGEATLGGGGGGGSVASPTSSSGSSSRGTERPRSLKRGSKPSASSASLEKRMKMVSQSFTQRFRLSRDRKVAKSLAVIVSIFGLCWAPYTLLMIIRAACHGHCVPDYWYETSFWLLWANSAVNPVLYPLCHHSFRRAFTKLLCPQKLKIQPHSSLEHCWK

| SMILES | Kb (gpH1R (ileum)) [µM] | EC50 (gpH2R (atrium) [2]) [µM] | Emax gpH2R (gpH2R (atrium) [2]) | further results |
| --- | --- | --- | --- | --- |
| CSC(=N)NCCCc1c[nH]cn1 [compound 143, N‐[3‐(1H‐Imidazol‐4‐yl)propyl]‐S‐methylisothiourea] | 3.89 | 7.41 | 0.45 and 0.45±0.05 | rel. potency (gpH2R (atrium) [1]; relative to histamine): 0.1; maximum response (gpH2R (atrium) [1]): 0.23 |
| N=C(N)NCCCCCCCCNC(=N)NCCCc1c[nH]cn1 [compound 125] | 1.62 | 0.0204 | 0.83 and 0.83±0.07 |  |
| NC(=S)NCCCc1c[nH]cn1 [compound 142] |  | 11 | 0.27±0.02 |  |
| N=C(N)NCCCCCCCCCCCCNC(=N)NCCCc1c[nH]cn1 [compound 127] | 0.0603 | 0.0562 | 0.77±0.07 | Emax hH3R (hH3R): 0; Kb (hH3R): 0.0661 µM; Emax hH2R (hH2R): 0.45±0.03; Emax hH4R (hH4R): 0; Kb (hH4R): 417 µM |
| N=C(NCCCCCCN)NCCCc1c[nH]cn1 [compound 117] | 6.31 | 0.38 | 0.79±0.01 |  |
| N=C(NCCCCCCCCCCNC(N)=O)NCCCc1c[nH]cn1 [compound 136] | 1 | 0.295 | 0.96±0.01 | Emax hH3R (hH3R): −1.20±0.15; Emax hH2R (hH2R): 0.45 and 0.45±0.03 |
| N=C(NCCCCCCCCCCCCN)NCCCc1c[nH]cn1 [compound 120] | 0.112 | 0.138 | 1.00 and 1.00±0.06 | Emax hH3R (hH3R): 0; Kb (hH3R): 0.191 µM; Emax hH2R (hH2R): 0.66±0.01; Emax hH4R (hH4R): 0; Kb (hH4R): 372 µM |
| N=C(NCCCCCCCCN)NCCCc1c[nH]cn1 [compound 118] | 1.29 | 0.309 | 0.75±0.10 |  |
| Cc1nc(N)sc1CCCNC(=N)NCCCCCCCCNC(=N)N [compound 128] | 0.214 | 0.135 | 0.72±0.02 |  |
| N=C(NCCCN)NCCCc1c[nH]cn1 [compound 115, 1‐(3‐Aminopropyl)‐3‐[3‐(1H‐imidazol‐4‐yl)propyl]guanidine] | 16.6 | 4.68 | 0.88±0.05 |  |
| Cc1nc(N)sc1CCCNC(=N)NCCCCCCCCCCCCN [compound 121] | 0.0708 | 0.324 | 0.71±0.03 | Emax hH3R (hH3R): −0.69±0.03; Emax hH2R (hH2R): 0.22 and 0.22±0.01; Emax hH4R (hH4R): 0; Kb (hH4R): 178 µM |
| N=C(NCCCCCCCCCCCCN)NCCCc1cnc(N)s1 [compound 122] | 0.00933 | 0.234 | 0.90±0.05 |  |
| O=C(NC(=S)NCCCc1c[nH]cn1)c1ccccc1 [compound 141, N‐{[3‐(1H‐Imidazol‐4‐yl)propyl]thiocarbamoyl}benzamide] |  | 18.6 | 0.43±0.01 |  |
| N=C(N)NCCCCCCCCNC(=N)NCCCc1cnc(N)s1 [compound 129] | 0.0501 | 0.0389 | 1.00±0.01 |  |
| N=C(N)NCCCCCCNC(=N)NCCCc1c[nH]cn1 [compound 124] | 0.933 | 0.0214 | 0.94±0.02 |  |
| N=C(NCCCNC(N)=O)NCCCc1c[nH]cn1 [compound 132] | 9.12 | 2.45 | 0.89±0.03 |  |
| NC(=O)NCCCc1c[nH]cn1 [compound 145, 1‐[3‐(1H‐Imidazol‐4‐yl)propyl]urea] | > 31.6 | 269 | 0.58±0.02 |  |
| N=C(N)NCCCCCCCCCCNC(=N)NCCCc1c[nH]cn1 [compound 126] | 0.251 | 0.0275 | 0.80±0.02 |  |
| O=C(NCCCc1c[nH]cn1)NC(=O)c1ccccc1 [compound 144] | 9.55 | 24 | 0.15±0.03 |  |
| N=C(NCCCCN)NCCCc1c[nH]cn1 [compound 116] | 3.8 | 7.41 | 0.68±0.02 |  |
| N=C(NCCCCCCNC(N)=O)NCCCc1c[nH]cn1 [compound 134] | 7.41 | 0.676 | 0.96±0.03 |  |
| N=C(N)NCCCCNC(=N)NCCCc1c[nH]cn1 [compound 123] | 2.63 | 0.0501 | 1.03 and 1.03±0.03 |  |
| N=C(NCCCCCCCCNC(N)=O)NCCCc1c[nH]cn1 [compound 135] | 1.41 | 0.182 | 0.94±0.05 |  |
| N=C(NCCCCNC(N)=O)NCCCc1c[nH]cn1 [compound 133] | 6.03 | 0.288 | 1.03±0.03 |  |
| NCCc1c[nH]cn1 [compound 1, histamine, reference compound] |  |  | 1.00 | Emax hH3R (hH3R; [3]): 1.00; Emax hH2R (hH2R; [3]): 1.00; Emax hH4R (hH4R; [3]): 1.00 |
| Cc1nc(N)sc1CCCNC(=N)NCCCCCCCCCCCCNC(=N)N [compound 130] | 0.174 | 0.0955 | 0.90±0.04 | Emax hH3R (hH3R): −1.21±0.10; Emax hH2R (hH2R): 0.22 and 0.22±0.01 |
| N=C(N)NCCCCCCCCCCCCNC(=N)NCCCc1cnc(N)s1 [compound 131] | 0.00871 | 0.117 | 0.85±0.05 |  |
| N=C(NCCCCCCCCCCN)NCCCc1c[nH]cn1 [compound 119] | 0.676 | 0.389 | 0.78±0.01 |  |
